According to patent publication US8431703B2, “Pyrrolopyridine compounds and their use in treating disease” (Novartis AG, priority 2005, dated 2013):

Assays:
human CRTh2 [1] = target: T1, human CRTh2 (Homo sapiens, UniProt Q9Y5Y4); assay: CRTH2 cAMP functional assay in CHO.K1-CRTh2 cells; type: cell-based; set-up: expressed in transfected cells; host or cells: CHO.K1-CRTh2 cells; conditions: inhibition of PGD2-mediated attenuation of forskolin-induced cAMP accumulation
T1 sequence (Q9Y5Y4 1-395): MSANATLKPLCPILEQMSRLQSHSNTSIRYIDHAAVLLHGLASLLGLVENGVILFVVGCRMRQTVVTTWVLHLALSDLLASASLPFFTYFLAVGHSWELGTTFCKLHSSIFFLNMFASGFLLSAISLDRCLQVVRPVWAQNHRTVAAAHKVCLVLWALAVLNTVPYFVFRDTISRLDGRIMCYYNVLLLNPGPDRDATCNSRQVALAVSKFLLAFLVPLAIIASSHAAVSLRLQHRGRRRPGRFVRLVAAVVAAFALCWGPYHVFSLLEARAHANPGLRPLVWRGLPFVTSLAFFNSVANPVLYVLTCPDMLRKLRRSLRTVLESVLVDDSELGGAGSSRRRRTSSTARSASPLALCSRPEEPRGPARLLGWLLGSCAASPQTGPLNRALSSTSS
Method: This assay is conducted in CHO.K1-CRTh2 cells. cAMP is generated in the cell by stimulating cells with 5 μM forskolin, an adenylate cyclase activator. PGD2 is added to activate the CRTh2 receptor which results in the attenuation of the forskolin-induced cAMP accumulation. Potential CRTh2 antagonists are tested for their ability to inhibit the PGD2-mediated attenuation of the forskolin-induced cAMP accumulation in CHO.K1-CRTh2 cells.
For each concentration value on the dose-response curve, test compounds are prepared in assay stimulation buffer (HBSS, 5 mM HEPES, 10 μM IBMX±0.1% human serum albumin) containing DMSO (3% vol/vol) and 5 μL/well is added to an assay plate (384 well white optiplate).
CHO.K1-CRTh2 cultured in tissue culture flasks are washed with PBS and harvested with dissociation buffer. Cells are washed with PBS and resuspended in stimulation buffer to a concentration of 0.4×10^6/mL and added to the assay plate (10 μL/well).
The assay plate is incubated at room temperature on a shaker for 15 minutes.
A mix of agonist (10 nM Prostaglandin D2) and 5 μM forskolin is prepared in assay stimulation buffer and added to the assay plate (5 μL/well).
In addition, a cAMP standard is serially diluted in assay stimulation buffer and added to separate empty wells on the assay plate (20 μL/well). The cAMP standard allows for the quantification of cAMP generated in CHO.K1-CRTH2 cells.
The assay plate is incubated at room temperature on a shaker for 60 minutes.
Cell lysis buffer (Lysis buffer: Milli-Q H20, 5 mM HEPES, 0.3% Tween-20, 0.1% human serum albumin) is added to a bead mix (containing Alphascreen™ anti-cAMP acceptor beads 0.06 units/IL, Alphascreen™ streptavidin-coated donor beads 0.06 units/μL, biotinylated cAMP 0.06 units/μL, 10 μM IBMX) is prepared under darkened conditions 60 minutes prior to addition to the assay plate. The resulting lysis mix is added to all wells of the assay plate (40 μL/well).
The assay plate is sealed with Topseal-S™ and incubated in the dark at room temperature on a shaker for 45 minutes. The plate is then counted using a Packard Fusion™ instrument.
The resulting counts per minute are converted to nM cAMP by using the prepared cAMP standard curve. IC50 values (concentration of CRTh2 antagonist required to inhibit 50% of the PGD2-mediated attenuation of forskolin-induced cAMP accumulation in CHO.K1-CRTh2 cells) are then determined using Prism™ software.

human CRTh2 [2] = target: T1, human CRTh2; assay: CRTh2 [3H]-PGD2 binding assay (filtration binding protocol; called SPA binding assay); set-up: expressed in transfected cells; host or cells: CHO.K1 (Chinese Hamster Ovary) cells, membrane preparation; conditions: competition with [3H]-PGD2 2.5 nM, CHO.K1-CRTh2 membranes
Method: The binding of CRTh2 modulators is determined using membranes prepared from human CRTh2-expressing Chinese Hamster Ovary cells (CHO.K1-CRTh2). To produce cell membranes CHO.K1-CRTh2 cells cultured in roller bottles are harvested using cell dissociation buffer (Invitrogen). The cells are pelleted by centrifugation (167 g, 5 min). The cell pellet is incubated in hypotonic buffer (15 mM Tris-OH, 2 mM MgCl2, 0.3 mM EDTA, 1 mM EGTA, 1× Complete™ tablet) at 4° C. for 30 min. At 4° C. cells are homogenized using a Polytron® (IKA Ultra Turrax T25) for 5 bursts of 1 second. The homogenate is centrifuged (Beckman Optima™ TL Ultracentrifuge, 48000 g, 30 min at 4° C.). The supernatant is discarded and the membrane pellet resuspended in homogenisation buffer (75 mM Tris-OH, 12.5 mM MgCl2, 0.3 mM EDTA, 1 mM EGTA, 250 mM Sucrose, 1× Complete™ tablet. Membrane preparations are aliquoted and stored at […]. The protein content is estimated using Bradford Protein Assay Dye (Bio Rad).
The binding of [^3H]-PGD2 (157 Ci/mmol) to CHO.K1-CRTh2 membranes is determined in the absence (total binding) and presence (non-specific binding) of unlabelled PGD2 (1 μM). Subtraction of the cpm (counts per minute) of [^3H]-PGD2 binding in presence of excess unlabelled PGD2 from that observed in the absence of excess unlabelled PGD2 is defined as specific binding. Active CRTh2 modulators are able to compete with [^3H]-PGD2 for binding to the CRTh2 receptor and are identified in a decrease in the number of cpm bound.
The assay is performed in Greiner U-bottomed 96 well-plates, in a final volume of 100 μl per well. CHO.K1-CRTh2 membranes were diluted in assay buffer (10 mM HEPES-KOH (pH 7.4), 1 mM EDTA and 10 mM MnCl2) and 10 μg are added to each well. [^3H]-PGD2 is diluted in assay buffer and added to each well at a final concentration of 2.5 nM. To determine non-specific binding, [^3H]-PGD2 binding to the CRTh2 receptor is competed with using unlabelled PGD2 at a final well concentration of 1 μM. The experiment is done in triplicate, with reagents added to the wells as follows: • 25 μL assay buffer for total binding or • 25 μL PGD2 to determine non-specific binding • 25 μL [^3H]PGD2 • 50 μL membranes • 25 μL test compound in DMSO/assay buffer
The plates are incubated at room temperature on a shaker for 1 hour, and then harvested (Tomtec Harvester 9600) onto GF/C filter plates using wash buffer (10 mM HEPES-KOH, pH 7.4). […] Plates are then counted using a Packard Top Count instrument, Plates are then read on the Packard Topcount with the 3H Scintillation program (1 min per well). • Ki (dissocation constant for the inhibition) values for the CRTh2 modulators are reported. Ki values are determined using Sigma Plot™ software, using the Cheng-Prussoff equation. […]

| IC50 (human CRTh2 [1]) [µM] | Ki (human CRTh2 [2]) [µM] | Compound |
| --- | --- | --- |
| 0.042 | 0.24 | Cc1c(CC(=O)O)c2cccnc2n1Cc1ccc(S(=O)(=O)N2CCCCC2)cc1 [Example 4] |
| 0.018 | 0.002 | Cc1c(CC(=O)O)c2cccnc2n1Cc1ccc(S(=O)(=O)N(C)C2CCCCC2)cc1 [Example 6, {1-[4-(Cyclohexyl-methyl-sulfamoyl)-benzyl]-2-methyl-1H-pyrrolo[2,3-b]pyridin-3-yl}-acetic acid] |
| 0.083 | 0.034 | Cc1c(CC(=O)O)c2cccnc2n1Cc1ccc(S(=O)(=O)N2CCCC2)cc1 [Example 2] |
| 0.06 | 0.03 | Cc1c(CC(=O)O)c2cccnc2n1Cc1ccc(S(=O)(=O)N2CCOCC2)cc1 [Example 1, {2-methyl-1-[4-(morpholine-4-sulfonyl)-benzyl]-1H-pyrrolo[2,3-b]pyridine-3-yl}acetic acid] |
